Key:
Type in all cases: in vivo
TGF-betal protein = TGF-betal protein levels in bone marrow supernatants and serum by ELISA; details: rats
Protocol: (§1) The toxicity of the compound of Example 2 was evaluated in rats treated orally with 30, 60, 120, or 200 mg/kg/day of the compound of Example 2, water, or vehicle (containing 80% propylene glycol, 5% cremophor, and 30-mg/ml povidone) for 4 weeks given in 2 divided doses at 8 hours apart. Reversibility of drug-induced changes was determined 4 and 8 weeks following drug withdrawal. The pathogenesis of the bone changes was evaluated in a study in rats treated with 200 mg/kg/day for 3 or 7 days. TGF-betal protein levels in bone marrow supernatants and serum were determined using ELISA at the end of each of the dosing period. Toxicity was evaluated using clinical, hematological, biochemical, and pathologic end points.

rats [1] = assay: 4-week oral toxicity study in rats with 4 and 8 week recovery
Protocol: as §1

rats [2] = assay: Pathogenesis of the bone changes, rats treated for 3 or 7 days; details: oral
Protocol: as §1

CC(=S)NC[C@H]1CN(c2ccc(N3CC[S+]([O-])CC3)c(F)c2)C(=O)O1 [Example 2, (S)-N-[[3-[3-Fluoro-4-(4-thiomorpholinyl)phenyl] -2-oxo-5-oxazolidinyl]methyl]thio-acetamide, thiomorpholine S-oxide]
Serum TGF-beta I (TGF-betal protein; Day 3, ELISA): slightly but significantly decreased
TGF-betal in marrow supernatants (TGF-betal protein; Day 3, ELISA): modestly but significantly increased
TGF-betal in marrow supernatants (TGF-betal protein; Day 7 or 28, ELISA): not on Day 7 or 28
persistence of newly formed bone spicules after drug withdrawal (rats [1]; 4 and 8 weeks after drug withdrawal): still present after 4 and 8 weeks of drug withdrawal
bone marrow changes (rats [1]; oral): did not show changes other than hypocellularity related to hematopoietic suppression
bone mass and density of trabecular (spongy) bone of sternum, femur/tibia, vertebrae, basal cranium (rats [1]; oral, 120 and 200 mg/kg/day): caused an increase in bone mass and density (hyperostosis)
endosteal cortical bone formation (rats [1]; oral, 120 and 200 mg/kg/day): occurred rarely
toxic effects (rats [1]; oral, 120 and 200 mg/kg/day): anorexia, weight loss, GI effects, hematopoietic suppression and lymphoid depletion
marrow cavity histology at Day 28 (rats [1]; oral, Day 28): marrow cavities were traversed by abundant normal looking trabecular bone
clinical tolerability (rats [1]; oral, all doses but 200 mg/kg/day (30, 60, 120 mg/kg/day), 4 weeks, 2 divided doses): well tolerated clinically
onset of hyperostosis (osteoblast proliferation, osteoid deposition) (rats [2]; 200 mg/kg/day for 3 or 7 days): became evident by Day 7
osseous changes on Day 3 (rats [2]; 200 mg/kg/day, Day 3): no significant osseous changes
